Laboratory results as given in PMC9569914, “Unique Structural Fold of LonBA Protease from Bacillus subtilis, a Member of a Newly Identified Subfamily of Lon Proteases” (International Journal of Molecular Sciences, 2022).

Assays:
EcLonA = biological target: T1, EcLonA (Escherichia coli, UniProt P0A9M0); assay: inhibition of PepTBE hydrolysis (peptidase assay, DTDP detection); also suppresses β-casein proteolysis; format: biochemical
T1 construct: gene lon; EcLonA-H6 (C-terminal hexahistidine tag)

BsLonBA = biological target: T2, BsLonBA (Bacillus subtilis, UniProt P42425); assay: IC50 from PepTBE peptidase assay of full-length enzyme; format: biochemical
T2 construct: gene lon2; P domain, residues 347–552 (crystal); full-length BsLonBA-H6 (IC50)

[1] = biological target: the molecule itself; assay: SEC; HiPrep 26/60 Sephacryl S-200 HR sizing column before crystallization, 25 mM Tris pH 7.5, 200 mM NaCl, 2 mM TCEP, 4-8 °C; no bortezomib
[2] = biological target: the molecule itself; assay: crystal structure; P domain with bortezomib (molar ratio 1:6), 10 mM MgCl2, hanging drop, 35% PEG400 pH 7.8; space group P6_(3), two molecules in the asymmetric unit, hexamer by the crystallographic 3-fold axis; 1.9 Å

T2 sequence (P42425 whole entry, the tested form may be a part): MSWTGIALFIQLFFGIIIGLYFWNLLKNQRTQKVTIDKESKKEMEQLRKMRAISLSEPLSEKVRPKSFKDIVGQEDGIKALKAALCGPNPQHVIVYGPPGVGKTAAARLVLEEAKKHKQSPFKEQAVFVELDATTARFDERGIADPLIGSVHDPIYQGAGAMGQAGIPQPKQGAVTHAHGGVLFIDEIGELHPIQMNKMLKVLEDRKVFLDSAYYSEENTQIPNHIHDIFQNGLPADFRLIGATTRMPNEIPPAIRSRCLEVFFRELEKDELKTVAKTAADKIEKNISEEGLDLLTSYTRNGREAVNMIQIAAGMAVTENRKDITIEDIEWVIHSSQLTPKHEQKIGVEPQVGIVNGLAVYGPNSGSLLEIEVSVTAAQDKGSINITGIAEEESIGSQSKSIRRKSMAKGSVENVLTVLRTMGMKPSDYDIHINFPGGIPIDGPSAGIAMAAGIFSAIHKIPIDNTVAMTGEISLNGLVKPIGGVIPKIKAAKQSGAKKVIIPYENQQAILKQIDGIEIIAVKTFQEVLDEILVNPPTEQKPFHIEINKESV
T1 sequence (P0A9M0 2-784): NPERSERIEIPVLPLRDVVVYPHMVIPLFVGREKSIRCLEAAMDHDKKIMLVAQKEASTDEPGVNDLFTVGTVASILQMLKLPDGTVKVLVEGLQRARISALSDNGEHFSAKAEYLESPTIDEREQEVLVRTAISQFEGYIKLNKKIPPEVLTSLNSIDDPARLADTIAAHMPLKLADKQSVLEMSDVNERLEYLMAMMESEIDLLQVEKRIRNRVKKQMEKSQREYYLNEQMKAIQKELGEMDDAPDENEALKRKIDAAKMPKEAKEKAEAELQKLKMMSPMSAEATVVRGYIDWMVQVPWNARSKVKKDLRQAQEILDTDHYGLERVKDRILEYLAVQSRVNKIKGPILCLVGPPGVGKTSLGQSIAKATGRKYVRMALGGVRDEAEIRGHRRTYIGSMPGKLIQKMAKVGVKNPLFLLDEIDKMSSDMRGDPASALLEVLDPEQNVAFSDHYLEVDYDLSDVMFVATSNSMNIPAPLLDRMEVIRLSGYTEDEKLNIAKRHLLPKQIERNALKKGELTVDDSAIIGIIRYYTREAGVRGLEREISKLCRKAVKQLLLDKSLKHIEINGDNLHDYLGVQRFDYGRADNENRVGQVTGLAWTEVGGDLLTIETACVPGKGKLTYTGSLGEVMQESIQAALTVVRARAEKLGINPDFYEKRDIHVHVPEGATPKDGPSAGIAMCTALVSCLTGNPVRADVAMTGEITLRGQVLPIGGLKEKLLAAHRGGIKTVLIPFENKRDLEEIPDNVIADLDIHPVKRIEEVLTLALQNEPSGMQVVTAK

With `CC(C)C[C@H](NC(=O)[C@H](Cc1ccccc1)NC(=O)c1cnccn1)B(O)O` [bortezomib] the IC50 (EcLonA) was 50 nM and the IC50 (BsLonBA) was 1150 nM.

B1: P domain of BsLonBA (residues 347-552) (domain or fragment, Bacillus subtilis strain 168, UniProt P42425 347-552, looked up)
chain: GVEPQVGIVNGLAVYGPNSGSLLEIEVSVTAAQDKGSINITGIAEEESIGSQSKSIRRKSMAKGSVENVLTVLRTMGMKPSDYDIHINFPGGIPIDGPSAGIAMAAGIFSAIHKIPIDNTVAMTGEISLNGLVKPIGGVIPKIKAAKQSGAKKVIIPYENQQAILKQIDGIEIIAVKTFQEVLDEILVNPPTEQKPFHIEINKESV
modifications: bortezomib covalently bound to the Oγ of Ser445 via the boronate moiety (in the crystal only; added after the sizing column)
notes: LonBA protease (previously assigned as LonB) of Bacillus subtilis strain 168, protease (P) domain, residues Gly347-Val552 of the 552-residue enzyme; catalytic dyad Ser445 and Lys488; Dimer on the sizing column, hexamer in the crystal by crystallographic symmetry (two chains in the asymmetric unit); Modelled in the maps: residues 352-547 in chain A and 348-535 in chain B; also called protease …
For B1, the “stoichiometry N” value [1] was 2 and the “stoichiometry N” value [2] was 6.
